The results in this text go back to patent US20240216272A1, “PHARMACEUTICAL PREPARATION” (KOWA COMPANY, LTD., priority 2014, published 2024).

Holding throughout (type): physicochemical
The nature of series [1]: Test Example 3: wavelengths of rays causing degradation of ripasudil in an aqueous composition No. 1. The conditions noted are these: for Analogs (%): about 15 W·h/m^2, 25° C.; for increase in the amount of analogs: aqueous composition, in words. How it is done: In the following test examples, ripasudil monohydrochloride dihydrate can be produced in accordance with the method described in WO2006/057397, for example. Moreover, in the following test examples, measurement of ripasudil and its analogs using HPLC was performed using an ODS column as the column, 0.01 mol/L phosphate buffer and acetonitrile as the mobile phase, and an ultraviolet absorptiometer (wavelength: 280 nm) as the detector. The wavelengths of rays causing the photodegradation of ripasudil in the aqueous composition examined in Test Example 2 were identified by examining the presence or absence of degradation products formed by exposure to light, by irradiation of rays with a specific range of wavelengths. Specifically, an aqueous composition containing, per 100 mL, 0.0612 g of ripasudil monohydrochloride dihydrate (0.05 g as the free form of ripasudil), 1.19 g of boric acid, 0.42 g of potassium chloride, 0.002 g of benzalkonium chloride, an appropriate amount of sodium hydroxide (pH 6.7), and sterile purified water (balance) was prepared, and this aqueous composition was stored in a transparent container made of polypropylene. The aqueous composition was then irradiated with rays with wavelengths in the range of approximately 270 to 335 nm, 320 to 395 nm, 370 to 435 nm, 430 to 470 nm, 470 to 530 nm, 525 to 575 nm, 570 to 630 nm, 625 to 675 nm, or 660 to 740 nm, at 25° C., using a spectroradiometer equipped with optical filters (spectral unit: HSU-100S, light source: MAX-302FBD; both from Asahi Spectra Co., Ltd.). Note that the rays of wavelengths in each of the ranges were emitted at a radiation energy of about 15 w·h/m^2. To examine the presence or absence of photodegradation products of ripasudil, the presence or absence of an increase in the amount of ripasudil analogs was evaluated, using the same method as that of Test Example 1.

Series [2] is described as follows: Test Example 6: photostability in container with shrinkable film containing an ultraviolet scattering agent. The conditions noted are these: for Analogs (%): aqueous composition 0.4 g/100 mL as free form, pH 6.0, polypropylene container wound with shrinkable film containing titanium oxide (transmittance 300 to 335 nm: 0.3%). The protocol:
Stabilization of the aqueous composition containing ripasudil was attempted by storing the aqueous composition in a container containing an ultraviolet scattering agent, as in Test Example 5. Specifically, the test was performed as in Test Example 5, except that the below-described container including a shrinkable film containing an ultraviolet scattering agent was used instead of the container containing an ultraviolet absorber, and a white fluorescent lamp (one used in a hospital dispensary and the like) was used as the light source instead of the D65 fluorescent lamp. A white shrinkable film (heat-shrinkable film) (Iwata Label Co., Ltd.) into which 40 to 45 mass % of titanium oxide was mixed as an ultraviolet scattering agent was wound around a side surface of a general container for eye drops made of polypropylene not containing an ultraviolet absorber, an ultraviolet scattering agent, or the like, in accordance with a conventional method, and the resulting container was used. […] Since the shrinkable film was not transparent, the contents were not visible through the side surface of the container in this state (for example, the average value of transmittance of light in the visible light region (450 to 750 nm) was 1.1%). Thus, slits with about a width of 5 mm were provided in the lower half of the side surface of the container to make the amount of the contents visible (this portion was not able to block the rays). The contents were visible through the bottom surface of the container, since the shrinkable film was not wound around the bottom surface.

A short description of series [3]: Test Example 9: Preservation Test No. 3, precipitation of crystals at 0° C. On the set-up: key to Presence or Absence of Precipitation of Crystals: the absence of precipitation of crystals was rated as “a”; the presence of precipitation of crystals was rated as “b”. The conditions noted are these: for Presence or Absence of Precipitation of Crystals: aqueous composition of Table 11 (phosphate, pH 6.7), 0° C. for 2 days; for precipitation of crystals: preserved at low temperature, in words. How it is done: An aqueous composition of the formulation shown in Table 11 was prepared in accordance with a conventional method, and then placed in a container made of polyethylene terephthalate (PET) or polyvinyl chloride (PVC) to produce a pharmaceutical preparation. Each of the resulting pharmaceutical preparations was preserved at 0° C. for 2 days, and then visually evaluated for the presence or absence of precipitation of crystals. Note that the absence of precipitation of crystals was rated as “a”, and the presence of precipitation of crystals was rated as “b”. [table]

A short description of series [4]: Test Example 10: Preservation Test No. 4, precipitation of crystals at 0° C. On the set-up: key to Presence or Absence of Precipitation of Crystals: the absence of precipitation of crystals was rated as “a”; the presence of precipitation of crystals was rated as “b”. The protocol: An aqueous composition of the formulation shown in Table 13 was prepared in accordance with a conventional method, and then placed in a container made of polyethylene terephthalate (PET) to produce a pharmaceutical preparation. The resulting pharmaceutical preparation was preserved at 0° C. for 21 days, and then visually evaluated for the presence or absence of precipitation of crystals. Note that the absence of precipitation of crystals was rated as “a”, and the presence of precipitation of crystals was rated as “b”. [table]

On to `C[C@H]1CNCCCN1S(=O)(=O)c1cccc2cncc(F)c12` [ripasudil, 4-fluoro-5-[[(2S)-2-methyl-1,4-diazepan-1-yl]sulfonyl]isoquinoline], for which the “Analogs (%)” value in series [1] (aqueous composition 0.05 g/100 mL as free form, boric acid, pH 6.7, transparent polypropylene container, emitted wavelengths 270 to 335 nm) was 4.22%; in series [1] (same composition, emitted wavelengths 320 to 395 nm), 1.23%; in series [1] (same composition, emitted wavelengths 370 to 435 nm), 0.05%; in series [1] (same composition, emitted wavelengths 430 to 470 nm), 0.05%; in series [1] (same composition, emitted wavelengths 470 to 530 nm), 0.05%; in series [1] (same composition, emitted wavelengths 525 to 575 nm) it was 0.05%. The “Analogs (%)” value was 0.05% in series [1] (same composition, emitted wavelengths 570 to 630 nm); 0.05% in series [1] (same composition, emitted wavelengths 625 to 675 nm); 0.05% in series [1] (same composition, emitted wavelengths 660 to 740 nm); 0.13% in series [2] (before exposure to light); 0.28% in series [2] (white fluorescent lamp, 1,200,000 lux·hr). In addition, the “increase in the amount of analogs” value in series [1] (rays with wavelengths of 370 nm or more) is reported as “an increase in the amount of analogs was not observed”; in series [1] (shorter wavelengths, particularly 270 to 335 nm), “a significant increase in the amount of analogs was observed”. For the same molecule, the “photostability of ripasudil in the aqueous composition” value in series [2] (container with average transmittance at 300 to 335 nm of 0.3%, in words) is on record as “improved”. For the same molecule, the “Presence or Absence of Precipitation of Crystals” value in series [3] (container PET) was “a”; in series [3] (container PVC), “b”; in series [4] (aqueous composition of Table 13 (boric acid, pH 6.7), 0° C. for 21 days, container PET), “a”. The precipitation of crystals result in series [3] (container made of PET) is “no precipitation of crystals was observed”; in series [3] (container made of PVC), “precipitation of crystals was observed”; in series [4] (changed formulation, preserved at low temperature, container made of PET, in words), “no precipitation of crystals was observed”.
